For orientation: IC50 means the midpoint of a concentration-inhibition curve. Higher therefore signals a need for much substance.

Like-named read-outs stand apart in the source and are kept apart here.

For test [1], the system named is human chronic myelogenous leukemic K562 cells. As to the kind of experiment: growth inhibition of K562 cells (MTT viability assay). The test is classed as cell-based. Conditions: for IC50: Homo sapiens, K562, 1 hour drug exposure at 37° C., 5-6 days, MTT; for activity against the growth of K562 cells: in words. As to the method: The ability of the compounds of the present invention to inhibit the growth of human chronic myelogenous leukemic K562 cells was determined as follows.
The incubation was terminated by centrifugation (5 minutes, 300 g) and the cells washed once with drug-free medium.
Following the appropriate drug treatment, the cells were transferred to 96-well microtiter plates, 10^4 cells per well, 8 wells per sample. Plates were then kept in the dark at 37° C. in a humidified atmosphere containing 5% CO2. […] Following incubation of the plates of 5-6 days (to allow control cells to increase in the number by 10 fold) 20 μL of a 5 mg/mL solution of MTT in phosphate buffered saline was added to each well and the plates further incubated for 5 h. The plates were then centrifuged for 5 minutes at 300 g and the bulk of the medium pipetted from the cell pellet leaving 10-20 μL per well. 200 μL DMSO was added to each well and the samples agitated to ensure complete mixing. The optical density was then read at a wavelength of 550 nm on a Titertek Multiscan ELISA plate reader and the dose-response curve constructed.
(Tetrazolium dyes change colour on reduction, which living cells bring about.)

The test system of another test is minor groove of B-DNA. The following applies: cited from earlier work.
In test [2] the target is poly(dGdC). The experiment in a line: ethidium displacement assay, poly(dGdC). In kind it is binding. The text has this:
(§1) The ethidium displacement assay is based on the fact that ethidium binding to DNA causes a large (approximately 25 fold) florescence enhancement as a result of the hydrophobic environment surrounding the ethidium molecule. Displacement of ethidium results in decreased fluorescence, and thus binding constants of drugs to DNA can be estimated and compared by measuring the loss of fluorescence as a function of added drug. The drug concentration which produces 50% inhibition of florescence is approximately inversely proportional to the apparent binding constant.
(§2) The relative DNA binding constants (Kapp) of distamycin and Compounds 6-10 to calf thymus DNA, T4 coliphage DNA, poly(dAdT) and poly(dGdC) were determined using the ethidium displacement assay (Morgan et al., 1979). The Kapp of ethidium bromide (Debart et al., 1989) is included for comparison. 25 μL of a 2A260 DNA solution was added to 2 mL of ethidium bromide buffer (250 μL of 1.3 mM ethidium bromidestock, 314.9 mg Tris-HCl, 60.8 mg Tris base and 930/mg of Na2 EDTA.2H2 O in 250 ml H2 O) pH 7.4 and the maximum fluorescence was measured (excitation wavelength=546 nm, emission wavelength=600 nm) at ambient temperature.
(§3) DNA solutions of 2A260 were prepared as follows: T4 coliphage DNA: 10 units of DNA were dissolved in 1 mL of 10 mM sodium phosphate (pH 7.1) and 0.25 mM EDTA buffer to give a 10A260 solution. 0.3 mL of the stock solution were diluted to 1.5 mL with 10 mM sodium phosphate (pH 7.1) and 0.25 mM EDTA buffer to give a 2A260 solution. Calf thymus DNA: 100 units of DNA were dissolved in 5 mL of 10 mM sodium phosphate (pH 7.1) and 0.25 mM EDTA buffer to give a 20A260 solution. 1.5 mL of the stock solution were diluted to 15 mL with 10 mM sodium phosphate (pH 7.1) and 0.25 mM EDTA buffer to give a 2A260 solution. Poly(dA-dT) and Poly(dG-dC) DNA: 100 units of DNA were dissolved in 10 mL of 10 mM sodium phosphate pH 7.1) and 0.25 mM EDTA buffer to give a 10A260 solution. 3 mL of the stock solution were diluted to 15 mL with 10 mM sodium phosphate (pH 7.1) and 0.25 mM EDTA buffer to give a 2A260 solution.
(§4) Aliquots of 10 mM stock drug solution (1 mg of drug to be tested was dissolved with 1 mole equivalent of 0.1M HCl, and then diluted with appropriate volume of distilled water to make a 10 mM solution) were then added to the fluorescing solution and the florescence measured after each addition until a 50% reduction of fluorescence occurred. If the 10 mM stock solution lowered the % fluorescence too quickly, the stock solution was further diluted to 1 mM prior to titration. The apparent binding constant was then calculated from this equation: KEtBr [EtBr]=Kapp [drug], where [drug]=the concentration of drug at a 50% reduction of fluorescence and KEtBr [1×10^7 M^-1 for calf thymus and coliphage T4 DNA^18, 9.5×10^6 M^-1 for poly(dA.dT)^30, and 9.9×10^6 M^-1 for poly(dG.dC)^30 ] and [EtBr] were known. The concentration of ethidium bromide was 1.3 μM. The Kapp values are shown in Table I. In a separate experiment, the Kapp of Compound 5 for calf thymus DNA and poly[dGdC] were determined to be 0.3×10^5 M^-1 and 2.6×10^5 M^-1, respectively. The error in these measurements is ±[…].

In test [3] the test system is calf thymus DNA. The experiment in a line: ethidium displacement assay, calf thymus DNA. The test is classed as binding.
Excerpt: as §1, §2, §3, §4

The subject of test [4] is T4 coliphage DNA. The experiment in a line: ethidium displacement assay, T4 coliphage DNA. The test is classed as binding. The following applies: ± 0.02 × 10^5 M^-1, pH 7.4.
Excerpt: as §1
The apparent binding constants for T4 coliphage DNA are an indicator of the minor groove selectivity of the compounds of the present invention. The major groove of T4 coliphage DNA is blocked by α-glycosylation of the 5-hydroxymethylcytidine residues; therefore, the non-intercalating agents that bind to T4 coliphage DNA must interact in the minor groove [Lown (1982) Acc. Chem. Res., 15, 381].
as §2, §3, §4

Test [5] addresses poly(dAdT). As to the kind of experiment: ethidium displacement assay, poly(dAdT). The test is classed as binding. Conditions: ± 0.02 × 10^5 M^-1, pH 7.4.
Excerpt: as §1, §2, §3, §4

In test [6] the test system is calf thymus DNA. As to the kind of experiment: UV-dialysis study (covalent retention on DNA). In kind it is binding. The following applies: 24 h incubation at room temperature; 20-26 hours dialysis; pH 7.1. From the text:
The compounds of the present invention are useful as anticancer agents. Although the biological mechanism which results in anticancer activity is not fully understood, the compounds of the subject invention are capable of binding to the minor groove of double-stranded DNA and, unlike distamycin and netropsin, can tolerate GC-containing DNA. Accordingly, the DNA alkylating moiety of the compounds of the present invention can be directed to the minor groove of GC-containing regions of double-stranded DNA. One of ordinary skill in the art can determine the DNA alkylating ability of the compounds of the present invention by art-recognized methods. The formation of an irreversible adduct of DNA and a compound of the present invention is defined herein as a measure of the DNA alkylating ability of the subject compounds. The formation of an irreversible adduct can be determined by art-recognized methods. For example, a solution containing DNA and a compound of the present invention can be exhaustively dialyzed under conditions which allow unbound drug to pass out of the dialysis bag. The percentage of the compound which has been retained in the dialysis bag is considered to be covalently bound to the DNA, and is determined by comparing the UV absorption spectrum of the compound/DNA solution before and after exhaustive dialysis.
0.5 mL of 2A260 calf thymus DNA was diluted to 2 mL with 10 mM sodium phosphate and 0.25 mM EDTA buffer, pH 7.1. Four aliquots (3 μL each) of a 1 mM stock drug solution in distilled water were added to the DNA solution and a UV absorption spectrum (300-320) was recorded after each addition. The drug/DNA solution was incubated for 24 h at room temperature and another UV spectrum was recorded. The drug/DNA solution was then transferred into a dialysis bag and the dialysis bag was suspended in 30 mL of 10 mM sodium phosphate and 0.25 mM EDTA buffer, pH, 7.1, at room temperature. After 20-26 hours, the […] spectrum of 2 mL of the buffer outside the dialysis bag was recorded. The absorbance of the drug peak was converted to concentration by the Beer-Lambert equation, and the data was presented as percent initial concentration. Under these conditions, substantial amounts of Compounds 6 (55±5%), 7 (45±5%), 8 (85±5%) and 10 (100±5%) are retained in the dialysis bag, while only 29±5% of a formamido analog^1 is retained.

Test [7] deals with calf thymus DNA. Conditions: literature constant, read-out: KEtBr; cited from earlier work.
The target of test [8] is poly(dGdC). Conditions: poly(dG.dC); literature constant; read-out: KEtBr (converted); cited from earlier work.
In test [9] the test system is T4 coliphage DNA. Conditions: literature constant, read-out: KEtBr; cited from earlier work.
The target of test [10] is poly(dAdT). Conditions: poly(dA.dT); literature constant; read-out: KEtBr (converted); cited from earlier work.

With `CN(C)CCNC(=O)c1nc(NC(=O)c2nc(NC(=O)CBr)cn2C)cn1C` [Compound 12, N-(N',N'-dimethylaminoethyl)-1-methyl-4-[4-(bromoacetamido)-1-methylimidazole-2-carboxamido]imidazole-2-carboxamide], the IC50 in [1] was found to be 400 µM.

For `Cn1cc(NC(=O)c2cc(NC(=O)CN=C(N)N)cn2C)cc1C(=O)NCCC(=N)N` [Netropsin, netropsin], the “specific nucleotide sequence bound / preferred” value in the test on minor groove of B-DNA is given as “(AT)4”.

For the molecule `CN(C)CCNC(=O)c1nc(NC(=O)c2nc(NC=O)cn2C)cn1C` [Compound 14], in test [1], the IC50 is above 500 µM and the “activity against the growth of K562 cells” value (shortened to “activity against the growth”) was “no activity”.

As to `CN(C)NC(=O)c1nc(NC(=O)c2nc(NC(=O)c3ccc(N(CCCl)CCCl)cc3)cn2C)cn1C` [Compound 5, N-(N',N'-dimethylamino)-1-methyl-4-{4-[4,4-bis(2-chloroethyl)aminobenzamido]-1-methylimidazole-2-carboxamido}imidazole-2-carboxamide], the Kd at poly(dGdC) [2] (poly[dGdC], separate experiment, read-out: Kapp (converted)) was 3.85 µM; in the test on calf thymus DNA [3] (separate experiment, read-out: Kapp (converted)) it was 33.3 µM.

With `Cn1cc(NC(=O)c2cc(NC(=O)c3cc(NC=O)cn3C)cn2C)cc1C(=O)NCCC(=N)N` [Distamycin, distamycin], the “Association constant Kapp” value is 203000 M⁻¹ on poly(dGdC) [2] (poly(dGdC), ± 0.02 × 10^5 M^-1, pH 7.4); 774000 M⁻¹ in the test with calf thymus DNA [3] (± 0.02 × 10^5 M^-1, pH 7.4); 640000 M⁻¹ with T4 coliphage DNA [4]; 3.48e+07 M⁻¹ on poly(dAdT) [5]. The “specific nucleotide sequence bound / preferred” value in the test with minor groove of B-DNA is reported as “(AT)5”.

For the molecule `CN(C)NC(=O)c1nc(NC(=O)c2nc(NC=O)cn2C)cn1C` [Compound 13], in test [1], the half-maximal inhibitory concentration (IC50) is above 500 µM and the “activity against the growth” value is listed as “no activity”.

On to `CN(C)CCNC(=O)c1nc(NC(=O)c2nc(NC(=O)c3nc(NC=O)cn3C)cn2C)cn1C` [Compound 15, N-(N',N'-dimethylaminoethyl)-1-methyl-4-{1-methyl-4-[4-formamido-2-methylimidazole-2-carboxamido]imidazole-2-carboxamido}imidazole-2-carboxamide], for which, in [1], the IC50 was above 500 µM and the “activity against the growth” value is recorded as “no activity”. The “retained in the dialysis bag (percent initial concentration)” value in the test with calf thymus DNA [6] was found to be 29±5%.

As for `CC[n+]1c(-c2ccccc2)c2cc(N)ccc2c2ccc(N)cc21` [EtBr, ethidium bromide], the Kd in the test on calf thymus DNA [7] is 0.1 µM; at poly(dGdC) [8], 0.101 µM; in the test on T4 coliphage DNA [9] it was 0.1 µM; at poly(dAdT) [10] it was 0.105 µM.

For the molecule `CN(C)CCNC(=O)c1nc(NC(=O)c2nc(NC(=O)CCl)cn2C)cn1C` [Compound 11, N-(N',N'-dimethylaminoethyl)-1-methyl-4-[4-(chloroacetamido)-1-methylimidazole-2-carboxamido)imidazole-2-carboxamide], in [1], the half-inhibitory concentration (IC50) was 350 µM.

Source of the values: US5273991A, “Imidazole-containing compositions and methods of use thereof analogs of distamycin” (Research Corporation Technologies, Inc., priority 1992, dated 1993).
